pIC50: −log10 of the molar value.
Target: ATX (human His-tagged) (Homo sapiens (Human), UniProt Q13822)
Assay: Human ATX enzyme inhibition assay (fluorescence quenching, MR121 substrate)
Type: biochemical
Settings: 30 nM ATX, 1 μM MR121 substrate, 30° C.
Method: Human ATX Enzyme Inhibition Assay
ATX inhibition was measured by a fluorescence quenching assay using a specifically labeled substrate analogue (MR121 substrate). To obtain this MR121 substrate, BOC and TBS protected 6-amino-hexanoic acid (R)-3-({2-[3-(2-{2-[2-(2-amino-ethoxy)-ethoxy]-ethoxy-}ethoxy)-propionylamino]-ethoxy}-hydroxy-phosphoryloxy)-2-hydroxy-propyl ester (Ferguson et al., Org Lett 2006, 8 (10), 2023) was labeled with MR121 fluorophore (CAS 185308-24-1, 1-(3-carboxypropyl)-11-ethyl-1,2,3,4,8,9,10,11-octahydro-dipyrido[3,2-b:2′,3′-i]phenoxazin-13-ium) on the free amine of the ethanolamine side and then, after deprotection, subsequently with tryptophan on the side of the aminohexanoic acid.
Assay working solutions were made as follows:
Assay buffer (50 mM Tris-HCl, 140 mM NaCl, 5 mM KCl, 1 mM CaCl2, 1 mM MgCl2, 0.01% Triton-X-100, pH 8.0;
ATX solution: ATX (human His-tagged) stock solution (1.08 mg/mL in 20 mM bicine, pH 8.5, 0.15 M NaCl, 10% glycerol, 0.3% CHAPS, 0.02% NaN3), diluted to 1.4-2.5× final concentration in assay buffer;
MR121 substrate solution: MR121 substrate stock solution (800 μM MR121 substrate in DMSO), diluted to 2-5× final concentration in assay buffer.
Test compounds (10 mM stock in DMSO, 8 μL) were obtained in 384 well sample plates (Corning Costar #3655) and diluted with 8 μL DMSO. Row-wise serial dilutions were made by transferring 8 μL cpd solution to the next row up to row O. The compound and control solutions were mixed five times and 2 μL were transferred to 384 well assay plates (Corning Costar #3702). Then, 15 μL of 41.7 nM ATX solution was added (30 nM final concentration), mixed five times and then incubated for 15 minutes at 30° C. 10 μL of MR121 substrate solution was added (1 μM final concentration), mixed 30 times and then incubated for 15 minutes at 30° C.
Fluorescence was then measured every 2 minutes for 1 hour (Perkin Elmer plate: vision multimode reader); light intensity: 2.5%; exp. time: 1.4 sec, Filter: Fluo_630/690 nm) and IC50 values were calculated from these readouts.

| Compound | pIC50 |
| --- | --- |
| CC(C)(C)C(=O)Nc1cc(C(F)(F)F)cnc1COC(=O)N1Cc2ccc(C(=O)N3CCC(S(N)(=O)=O)CC3)cc2C1 [Example 2.03, [3-(2,2-dimethylpropanoylamino)-5-(trifluoromethyl)pyridin-2-yl]methyl 5-(4-sulfamoylpiperidine-1-carbonyl)-1,3-dihydroisoindole-2-carboxylate] | 8.15 |
| NS(=O)(=O)C1CCN(C(=O)c2nc3c(s2)CN(C(=O)c2cc(OCC4CCOCC4)nc(C4CC4)c2)C3)CC1 [Example 3.01, 1-[5-[2-cyclopropyl-6-(oxan-4-ylmethoxy)pyridine-4-carbonyl]-4,6-dihydropyrrolo[3,4-d][1,3]thiazole-2-carbonyl]piperidine-4-sulfonamide] | 8.70 |
| CC(C)(C)C(=O)Nc1cc(C(F)(F)F)cnc1COC(=O)N1Cc2nc(C(=O)N3CCC(S(N)(=O)=O)CC3)oc2C1 [Example 2.06, [3-(2,2-dimethylpropanoylamino)-5-(trifluoromethyl)pyridin-2-yl]methyl 2-(4-sulfamoylpiperidine-1-carbonyl)-4,6-dihydropyrrolo[3,4-d][1,3]oxazole-5-carboxylate] | 9.00 |
| CC(C)(C)C(=O)Nc1cc(C(F)(F)F)cnc1COC(=O)N1Cc2ccc(C(=O)N3CCc4onc(O)c4C3)cc2C1 [Example 2.05, [3-(2,2-dimethylpropanoylamino)-5-(trifluoromethyl)pyridin-2-yl]methyl 5-(3-hydroxy-6,7-dihydro-4H-[1,2]oxazolo[4,5-c]pyridine-5-carbonyl)-1,3-dihydroisoindole-2-carboxylate] | 8.40 |
| CC(C)(C)C(=O)Nc1cc(C(F)(F)F)cnc1COC(=O)N1Cc2ccc(C(=O)N3CCc4c(O)noc4C3)cc2C1 [Example 2.04, [3-(2,2-dimethylpropanoylamino)-5-(trifluoromethyl)pyridin-2-yl]methyl 5-(3-hydroxy-5,7-dihydro-4H-[1,2]oxazolo[5,4-c]pyridine-6-carbonyl)-1,3-dihydroisoindole-2-carboxylate] | 8.15 |
| O=C(c1cc(OCC2CCOCC2)nc(C2CC2)c1)N1Cc2nc(C(=O)N3CCc4[nH]nnc4C3)oc2C1 [Example 1.01, [2-cyclopropyl-6-(oxan-4-ylmethoxy)pyridin-4-yl]-[2-(1,4,6,7-tetrahydrotriazolo[4,5-c]pyridine-5-carbonyl)-4,6-dihydropyrrolo[3,4-d][1,3]oxazol-5-yl]methanone] | 8.70 |
| O=C(c1cc(OCC2CCOCC2)nc(C2CC2)c1)N1Cc2ccc(C(=O)N3CCc4c(O)noc4C3)cc2C1 [Example 2, [2-[2-Cyclopropyl-6-(oxan-4-ylmethoxy)pyridine-4-carbonyl]-1,3-dihydroisoindol-5-yl]-(3-hydroxy-5,7-dihydro-4H-[1,2]oxazolo[5,4-c]pyridin-6-yl)methanone] | 7.62 |
| NS(=O)(=O)C1CCN(C(=O)c2ccc3c(c2)CN(C(=O)c2cc(OCC4CCOCC4)nc(C4CC4)c2)C3)CC1 [Example 2.01, 1-[2-[2-cyclopropyl-6-(oxan-4-ylmethoxy)pyridine-4-carbonyl]-1,3-dihydroisoindole-5-carbonyl]piperidine-4-sulfonamide] | 8.00 |
| O=C(c1cc(OCC2CCOCC2)nc(C2CC2)c1)N1Cc2ccc(C(=O)N3CCc4onc(O)c4C3)cc2C1 [Example 2.02, [2-[2-cyclopropyl-6-(oxan-4-ylmethoxy)pyridine-4-carbonyl]-1,3-dihydroisoindol-5-yl]-(3-hydroxy-6,7-dihydro-4H-[1,2]oxazolo[4,5-c]pyridin-5-yl)methanone] | 8.15 |
| CC(C)(C)C(=O)Nc1cc(C(F)(F)F)cnc1COC(=O)N1Cc2nc(C(=O)N3CCc4[nH]nnc4C3)oc2C1 [Example 4, [3-(2,2-Dimethylpropanoylamino)-5-(trifluoromethyl)pyridin-2-yl]methyl 2-(1,4,6,7-tetrahydrotriazolo[4,5-c]pyridine-5-carbonyl)-4,6-dihydropyrrolo[3,4-d][1,3]oxazole-5-carboxylate] | 9.00 |
| CC(C)(C)C(=O)Nc1cc(C(F)(F)F)cnc1COC(=O)N1Cc2cc(C(=O)N3CCC(S(N)(=O)=O)CC3)sc2C1 [Example 4.02, [3-(2,2-Dimethylpropanoylamino)-5-(trifluoromethyl)pyridin-2-yl]methyl 2-(4-sulfamoylpiperidine-1-carbonyl)-4,6-dihydrothieno[2,3-c]pyrrole-5-carboxylate] | 9.00 |
| NS(=O)(=O)C1CCN(C(=O)c2cc3c(s2)CN(C(=O)c2cc(OCC4CCOCC4)nc(C4CC4)c2)C3)CC1 [Example 3.02, 1-[5-[2-cyclopropyl-6-(oxan-4-ylmethoxy)pyridine-4-carbonyl]-4,6-dihydrothieno[2,3-c]pyrrole-2-carbonyl]piperidine-4-sulfonamide] | 8.15 |
| O=C(c1cc(OCC2CCOCC2)nc(C2CC2)c1)N1Cc2nc(C(=O)N3CCc4c(O)noc4C3)oc2C1 [Example 3, [2-Cyclopropyl-6-(oxan-4-ylmethoxy)pyridin-4-yl]-[2-(3-hydroxy-5,7-dihydro-4H-[1,2]oxazolo[5,4-c]pyridine-6-carbonyl)-4,6-dihydropyrrolo[3,4-d][1,3]oxazol-5-yl]methanone] | 8.30 |
| O=C(c1cc(OCC2CCOCC2)nc(C2CC2)c1)N1CCc2cc(C(=O)N3CCc4[nH]nnc4C3)ccc2C1 [Example 1, [2-[2-Cyclopropyl-6-(oxan-4-ylmethoxy)pyridine-4-carbonyl]-3,4-dihydro-1H-isoquinolin-6-yl]-(1,4,6,7-tetrahydrotriazolo[4,5-c]pyridin-5-yl)methanone] | 8.70 |
| CC(C)(C)C(=O)Nc1cc(C#N)c(Cl)cc1COC(=O)N1Cc2nc(C(=O)N3CCc4c(O)noc4C3)oc2C1 [Example 4.01, [5-chloro-4-cyano-2-(2,2-dimethylpropanoylamino)phenyl]methyl 2-(3-hydroxy-5,7-dihydro-4H-[1,2]oxazolo[5,4-c]pyridine-6-carbonyl)-4,6-dihydropyrrolo[3,4-d][1,3]oxazole-5-carboxylate] | 8.15 |
